Experimental data from the NIST ThermoML archive (doi:10.1016/j.tca.2016.05.001).
Values joined by “and” are separate entries in the source; they are usually repeats but may differ in a detail not shown here. Equal values may be shown once.

What was measured:
[1] = for Triple point temperature: DSC
[2] = Molar enthalpy of transition or fusion; conditions: Crystal; DSC

c1cnc2c(c1)ccc1ncccc12 [1,5-diazaphenanthrene]
[1]
Conditions | vapor or sublimation pressure
315 K, Crystal, Torsion effusion method | 3.8e-05 kPa
315.1 K, Crystal, Torsion effusion method | 3.8e-05 kPa
317.3 K, Crystal, Torsion effusion method | 4.7e-05 kPa
317.9 K, Crystal, Torsion effusion method | 5.7e-05 kPa
318.6 K, Crystal, Torsion effusion method | 5.7e-05 kPa
319.5 K, Crystal, Torsion effusion method | 6.7e-05 kPa
320.5 K, Crystal, Torsion effusion method | 7.6e-05 kPa
320.8 K, Crystal, Torsion effusion method | 7.6e-05 kPa
322.6 K, Crystal, Torsion effusion method | 0.0001 kPa
322.9 K, Crystal, Torsion effusion method | 0.00011 kPa
323 K, Crystal, Torsion effusion method | 0.000114 kPa
323.8 K, Crystal, Torsion effusion method | 0.00011 kPa
325.3 K, Crystal, Torsion effusion method | 0.000142 kPa
325.6 K, Crystal, Torsion effusion method | 0.00014 kPa
326 K, Crystal, Torsion effusion method | 0.00015 kPa
326.2 K, Crystal, Torsion effusion method | 0.00017 kPa
327.5 K, Crystal, Torsion effusion method | 0.00021 kPa
328.2 K, Crystal, Torsion effusion method | 0.000208 kPa and 0.00021 kPa
328.7 K, Crystal, Torsion effusion method | 0.00023 kPa
329.1 K, Crystal, Torsion effusion method | 0.00025 kPa
329.6 K, Crystal, Torsion effusion method | 0.00026 kPa
330.5 K, Crystal, Torsion effusion method | 0.00028 kPa
331 K, Crystal, Torsion effusion method | 0.0003 kPa
331.5 K, Crystal, Torsion effusion method | 0.00033 kPa
332 K, Crystal, Torsion effusion method | 0.00032 kPa
333 K, Crystal, Torsion effusion method | 0.00041 kPa
334.5 K, Crystal, Torsion effusion method | 0.00044 kPa
334.9 K, Crystal, Torsion effusion method | 0.00051 kPa
335 K, Crystal, Torsion effusion method | 0.00047 kPa
336.2 K, Crystal, Torsion effusion method | 0.00061 kPa
336.5 K, Crystal, Torsion effusion method | 0.00055 kPa
337.7 K, Crystal, Torsion effusion method | 0.00072 kPa
338.3 K, Crystal, Torsion effusion method | 0.00072 kPa
339.3 K, Crystal, Torsion effusion method | 0.00072 kPa
340 K, Crystal, Torsion effusion method | 0.00095 kPa and 0.00091 kPa
340.4 K, Crystal, Torsion effusion method | 0.00087 kPa
341.5 K, Crystal, Torsion effusion method | 0.00112 kPa
342.6 K, Crystal, Torsion effusion method | 0.00108 kPa
343.5 K, Crystal, Torsion effusion method | 0.00127 kPa
380.1 K, Liquid, Rate of evaporation | 0.023 kPa
382.1 K, Liquid, Rate of evaporation | 0.028 kPa
385.6 K, Liquid, Rate of evaporation | 0.032 kPa
388.2 K, Liquid, Rate of evaporation | 0.037 kPa
390.3 K, Liquid, Rate of evaporation | 0.043 kPa
393.1 K, Liquid, Rate of evaporation | 0.05 kPa
395.6 K, Liquid, Rate of evaporation | 0.057 kPa
398.1 K, Liquid, Rate of evaporation | 0.065 kPa
403.1 K, Liquid, Rate of evaporation | 0.086 kPa
405.6 K, Liquid, Rate of evaporation | 0.097 kPa
408.1 K, Liquid, Rate of evaporation | 0.113 kPa
410.9 K, Liquid, Rate of evaporation | 0.132 kPa
413.1 K, Liquid, Rate of evaporation | 0.145 kPa
418.1 K, Liquid, Rate of evaporation | 0.187 kPa
423.1 K, Liquid, Rate of evaporation | 0.24 kPa
428.1 K, Liquid, Rate of evaporation | 0.302 kPa

Conditions | Triple point temperature [K]
[1], Crystal | 351.7

Conditions | Molar enthalpy of transition or fusion [kcal/mol]
[2] | 6.12

c1cnc2c(c1)ccc1cccnc12 [1,10-phenanthroline]
[1]
Conditions | vapor or sublimation pressure [kPa]
308.1 K, Crystal, Calculated from knudsen effusion weight loss | 8.3e-07
313.1 K, Crystal, Calculated from knudsen effusion weight loss | 1.76e-06
318.1 K, Crystal, Calculated from knudsen effusion weight loss | 3.3e-06
320.9 K, Crystal, Calculated from knudsen effusion weight loss | 4.6e-06
323.1 K, Crystal, Calculated from knudsen effusion weight loss | 5.5e-06
325.8 K, Crystal, Calculated from knudsen effusion weight loss | 8e-06
327.9 K, Crystal, Calculated from knudsen effusion weight loss | 9.9e-06
330.9 K, Crystal, Calculated from knudsen effusion weight loss | 1.53e-05
332.8 K, Crystal, Calculated from knudsen effusion weight loss | 1.71e-05
335.7 K, Crystal, Calculated from knudsen effusion weight loss | 2.6e-05
337.7 K, Crystal, Calculated from knudsen effusion weight loss | 3e-05
340.6 K, Crystal, Calculated from knudsen effusion weight loss | 4.2e-05
342.6 K, Crystal, Calculated from knudsen effusion weight loss | 5.1e-05
345.5 K, Crystal, Calculated from knudsen effusion weight loss | 7.7e-05
345.6 K, Crystal, Calculated from knudsen effusion weight loss | 7.5e-05
347.5 K, Crystal, Calculated from knudsen effusion weight loss | 9.2e-05
350.8 K, Crystal, Calculated from knudsen effusion weight loss | 0.000131
352.7 K, Crystal, Calculated from knudsen effusion weight loss | 0.000148
354.7 K, Crystal, Calculated from knudsen effusion weight loss | 0.000194
357.7 K, Crystal, Calculated from knudsen effusion weight loss | 0.00024
358.6 K, Crystal, Calculated from knudsen effusion weight loss | 0.00025
360.5 K, Crystal, Calculated from knudsen effusion weight loss | 0.0003
360.6 K, Crystal, Calculated from knudsen effusion weight loss | 0.00033
361.8 K, Crystal, Calculated from knudsen effusion weight loss | 0.00034
362.5 K, Crystal, Calculated from knudsen effusion weight loss | 0.00038
363.4 K, Crystal, Calculated from knudsen effusion weight loss | 0.0004
365 K, Crystal, Calculated from knudsen effusion weight loss | 0.00046
366.3 K, Crystal, Calculated from knudsen effusion weight loss | 0.00052
367.4 K, Crystal, Calculated from knudsen effusion weight loss | 0.0006
367.6 K, Crystal, Calculated from knudsen effusion weight loss | 0.00059
369.3 K, Crystal, Calculated from knudsen effusion weight loss | 0.00069
370.9 K, Crystal, Calculated from knudsen effusion weight loss | 0.0008
372.2 K, Crystal, Calculated from knudsen effusion weight loss | 0.0009
374 K, Crystal, Calculated from knudsen effusion weight loss | 0.00107
375.1 K, Crystal, Calculated from knudsen effusion weight loss | 0.00119
377.2 K, Crystal, Calculated from knudsen effusion weight loss | 0.0014
378.1 K, Crystal, Calculated from knudsen effusion weight loss | 0.00154
380.1 K, Crystal, Calculated from knudsen effusion weight loss | 0.00182
381 K, Crystal, Calculated from knudsen effusion weight loss | 0.00199
382.8 K, Crystal, Calculated from knudsen effusion weight loss | 0.00229
384.2 K, Crystal, Calculated from knudsen effusion weight loss | 0.00264
385.6 K, Crystal, Calculated from knudsen effusion weight loss | 0.00292
387.1 K, Crystal, Calculated from knudsen effusion weight loss | 0.00335
393.2 K, Liquid, Rate of evaporation | 0.0054
395.9 K, Liquid, Rate of evaporation | 0.0061
398.6 K, Liquid, Rate of evaporation | 0.0073
401.3 K, Liquid, Rate of evaporation | 0.0084
404.1 K, Liquid, Rate of evaporation | 0.0094
406.8 K, Liquid, Rate of evaporation | 0.0113
409.5 K, Liquid, Rate of evaporation | 0.0131
412.3 K, Liquid, Rate of evaporation | 0.0147
415 K, Liquid, Rate of evaporation | 0.0173
417.7 K, Liquid, Rate of evaporation | 0.0206
420.5 K, Liquid, Rate of evaporation | 0.024

Conditions | Triple point temperature [K]
[1], Crystal | 390.9

Conditions | Molar enthalpy of transition or fusion [kcal/mol]
[2] | 3.2

c1cnc2ccc3ncccc3c2c1 [4,7-phenanthroline]
[1]
Conditions | vapor or sublimation pressure
336.8 K, Crystal, Torsion effusion method | 2.8e-05 kPa
337.1 K, Crystal, Torsion effusion method | 2.8e-05 kPa
339.5 K, Crystal, Torsion effusion method | 3.8e-05 kPa
340 K, Crystal, Torsion effusion method | 3.8e-05 kPa
340.1 K, Crystal, Torsion effusion method | 3.8e-05 kPa
341 K, Crystal, Torsion effusion method | 4.7e-05 kPa
341.9 K, Crystal, Torsion effusion method | 4.7e-05 kPa
342.8 K, Crystal, Torsion effusion method | 5.7e-05 kPa
342.9 K, Crystal, Torsion effusion method | 5.7e-05 kPa
343.3 K, Crystal, Torsion effusion method | 5.7e-05 kPa
346 K, Crystal, Torsion effusion method | 8.5e-05 kPa
346.6 K, Crystal, Torsion effusion method | 9.4e-05 kPa
346.7 K, Crystal, Torsion effusion method | 9.4e-05 kPa
348.3 K, Crystal, Torsion effusion method | 0.000114 kPa
349 K, Crystal, Torsion effusion method | 0.000114 kPa
349.4 K, Crystal, Torsion effusion method | 0.000133 kPa
350.6 K, Crystal, Torsion effusion method | 0.000151 kPa
350.8 K, Crystal, Torsion effusion method | 0.000133 kPa
351.7 K, Crystal, Torsion effusion method | 0.00017 kPa
351.8 K, Crystal, Torsion effusion method | 0.00017 kPa
352.7 K, Crystal, Torsion effusion method | 0.00019 kPa
352.8 K, Crystal, Torsion effusion method | 0.00017 kPa
354.4 K, Crystal, Torsion effusion method | 0.000208 kPa
354.7 K, Crystal, Torsion effusion method | 0.000219 kPa
354.8 K, Crystal, Torsion effusion method | 0.000228 kPa
355.5 K, Crystal, Torsion effusion method | 0.000264 kPa
355.7 K, Crystal, Torsion effusion method | 0.000247 kPa
355.8 K, Crystal, Torsion effusion method | 0.000247 kPa
356.4 K, Crystal, Torsion effusion method | 0.000264 kPa
358.2 K, Crystal, Torsion effusion method | 0.00034 kPa and 0.000323 kPa
358.7 K, Crystal, Torsion effusion method | 0.000361 kPa
359.4 K, Crystal, Torsion effusion method | 0.000379 kPa
360.2 K, Crystal, Torsion effusion method | 0.000415 kPa
360.5 K, Crystal, Torsion effusion method | 0.000436 kPa and 0.000415 kPa
361.4 K, Crystal, Torsion effusion method | 0.000512 kPa
362.2 K, Crystal, Torsion effusion method | 0.000472 kPa
363.1 K, Crystal, Torsion effusion method | 0.000533 kPa
363.2 K, Crystal, Torsion effusion method | 0.000571 kPa
364.1 K, Crystal, Torsion effusion method | 0.000625 kPa
366.2 K, Crystal, Torsion effusion method | 0.000819 kPa and 0.000741 kPa
368.4 K, Crystal, Torsion effusion method | 0.000951 kPa
368.7 K, Crystal, Torsion effusion method | 0.00102 kPa
369.6 K, Crystal, Torsion effusion method | 0.001041 kPa
463.1 K, Liquid, Rate of evaporation | 1.495 kPa
468.1 K, Liquid, Rate of evaporation | 1.882 kPa
473.1 K, Liquid, Rate of evaporation | 2.253 kPa
477.9 K, Liquid, Rate of evaporation | 2.67 kPa
481.9 K, Liquid, Rate of evaporation | 3.103 kPa
486.5 K, Liquid, Rate of evaporation | 4.064 kPa
492.1 K, Liquid, Rate of evaporation | 5.014 kPa
496.2 K, Liquid, Rate of evaporation | 6.311 kPa

Conditions | Triple point temperature [K]
[1], Crystal | 444.1

Conditions | Molar enthalpy of transition or fusion [kcal/mol]
[2] | 5.35
